Measured values as given in patent US7314626B2, “Use of peptide vectors to improve the immune response to antigens” (SYNT:EM S.A., priority 2001, dated 2008).

How the values were obtained:
[1] = tested on: Balb/c mice; assay: Immunization with flu NP peptide, CTL responses by 51Cr release assay; assay type: in vivo; conditions: FIG. 2; for specific CTL responses: intradermal, 25 μg flu NP peptide equivalent, spleens after three weeks; for mice eliciting CTL responses: three mice per group
[2] = tested on: K562 cells; assay: Cell uptake by K562 cells, flow cytometry (Mean Fluorescence Intensity); assay type: cell-based; conditions: for cell uptake as judged by the mean of fluorescence intensity: 37° C.
Method: Cell association was measured by flow cytometry using a FACScan (Becton Dickinson, USA). Free or vectorised compounds were incubated with K562 cells (5×10^5 cells per ml) in Optimem medium at 37° C. for various periods of time.
Thereafter, the cells were washed twice and then resuspended in 0.5 ml of ice-cold PBS for FACS analysis. Cell-associated fluorophores were excited at 488 nm and fluorescence was measured at 525 nm. A histogram of fluorescence intensity per cell (1×10^4) was obtained and the calculated mean of this distribution (Mean Fluorescence Intensity) was considered as representative of the amount of cell-associated peptide
Flu NP epitope was conjugated to SynB3 and SynB4 vectors. First, we compared the cell uptake of free and conjugated flu NP. Flu NP epitope was conjugated to SynB3 and SynB4 vectors and labelled with a fluorescent group (NBD). The compounds were incubated with K562 cells for various times and the cell uptake was measured using flow cytometry.
We also coupled rDPV protein with SynB3 and SynB4 vectors. The coupling procedure is described in the Protocols. First, we compared the cell uptake of free and coupled rDPV. The rDPV was labelled with a fluorescent group (NBD) in order to measure its uptake. The compounds were incubated with K562 cells for various times and the cell uptake was measured using flow cytometry.

[3] = tested on: C57B1/6/c mice; assay: Immunization with rDPV protein, DPV specific CTL responses by 51Cr release assay; assay type: in vivo; conditions: 5 μg intradermal on day 0 and day 21, spleens day 42, FIG. 4, effective response defined as >10% specific lysis
[4] = NBD-labelled free or conjugated flu NP, FIG. 1
[5] = NBD-labelled free or coupled rDPV, FIG. 3

Substance	specific CTL responses [1]	mice eliciting CTL responses [1]	cell uptake as judged by the mean of fluorescence intensity [2, 4]	cell uptake higher than the one observed for free flu NP ([2]; at 45 min)	mean CTL response [3]	time at which cell uptake reached saturation ([2]; FIG. 3) [min]	cell uptake as judged by the mean of fluorescence intensity [2, 5]	cell uptake as judged by the mean of fluorescence intensity ([2]; NBD-labelled free or coupled rDPV, FIG. 3, listed as rDPV-SynB4)
AWSFRVSYRGISYRRSR-TYQRTRALV (SEQ ID NO:21) (AWSFRVSYRGISYRRSRTYQRTRALV) [SynB4/flu NP]	elicited specific CTL responses	all mice	increased significantly	about 5 fold				
AWSFRVSYRGISYRRSR-rDPV ((SEQ ID NO:18)-rDPV) [SynB4/rDPV]					strong CTL responses	100	increased significantly	slightly better than SynB3
RRLSYSRRRF-TYQRTRALV (SEQ ID NO:22) (RRLSYSRRRFTYQRTRALV) [SynB3/flu NP]	elicited specific CTL responses	all mice	increased significantly					
RRLSYSRRRF-rDPV ((SEQ ID NO:11)-rDPV) [SynB3/rDPV]					strong CTL responses	30	increased significantly	
TYQRTRALV (SEQ ID NO:20) [flu NP, reference compound]	failed to elicit specific CTL responses		very low uptake					
